From article PMC12380353, “MK-8527 is a novel inhibitor of HIV-1 reverse transcriptase translocation with potential for extended-duration dosing” (PLOS Biology, 2025) come the findings set out here.

Read-outs that look alike come from different tables or passages of the source.

Experiment [1] addresses T1, human mitochondrial DNA polymerase γ (Homo sapiens, UniProt P54098).
T1 sequence (P54098 1-1239): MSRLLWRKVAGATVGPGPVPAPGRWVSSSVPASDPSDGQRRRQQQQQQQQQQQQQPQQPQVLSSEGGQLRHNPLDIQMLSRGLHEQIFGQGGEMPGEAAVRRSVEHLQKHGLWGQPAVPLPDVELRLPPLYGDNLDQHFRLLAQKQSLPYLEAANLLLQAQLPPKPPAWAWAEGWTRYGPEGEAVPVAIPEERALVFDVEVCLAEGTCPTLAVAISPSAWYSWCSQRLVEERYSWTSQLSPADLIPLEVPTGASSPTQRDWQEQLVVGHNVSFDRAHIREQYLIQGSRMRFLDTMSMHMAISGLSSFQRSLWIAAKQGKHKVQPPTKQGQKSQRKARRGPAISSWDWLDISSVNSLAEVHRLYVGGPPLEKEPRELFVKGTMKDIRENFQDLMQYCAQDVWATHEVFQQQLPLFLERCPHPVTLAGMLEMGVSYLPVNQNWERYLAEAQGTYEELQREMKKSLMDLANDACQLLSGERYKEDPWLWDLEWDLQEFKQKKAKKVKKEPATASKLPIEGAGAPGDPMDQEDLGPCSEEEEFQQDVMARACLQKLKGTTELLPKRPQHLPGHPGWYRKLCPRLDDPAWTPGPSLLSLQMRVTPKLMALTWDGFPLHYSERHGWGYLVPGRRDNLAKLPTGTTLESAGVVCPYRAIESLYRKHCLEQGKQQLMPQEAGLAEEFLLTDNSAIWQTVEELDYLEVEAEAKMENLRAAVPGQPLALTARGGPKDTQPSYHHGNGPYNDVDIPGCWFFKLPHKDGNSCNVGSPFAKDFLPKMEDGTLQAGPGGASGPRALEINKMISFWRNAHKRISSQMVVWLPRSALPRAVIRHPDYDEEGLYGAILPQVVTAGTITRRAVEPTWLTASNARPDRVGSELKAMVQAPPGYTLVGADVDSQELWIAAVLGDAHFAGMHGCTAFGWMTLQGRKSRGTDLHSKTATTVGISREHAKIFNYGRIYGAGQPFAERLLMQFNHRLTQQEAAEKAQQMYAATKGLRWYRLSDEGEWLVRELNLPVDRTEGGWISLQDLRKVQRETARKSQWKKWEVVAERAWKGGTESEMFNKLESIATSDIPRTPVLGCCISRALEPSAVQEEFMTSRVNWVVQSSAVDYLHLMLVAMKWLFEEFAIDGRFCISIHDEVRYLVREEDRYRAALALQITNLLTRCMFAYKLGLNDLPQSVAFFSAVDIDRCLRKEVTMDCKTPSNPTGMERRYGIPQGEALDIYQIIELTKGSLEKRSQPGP
In words: Human mitochondrial DNA polymerase γ inhibition assay. To be noted: highest concentration tested 200 µM. In kind it is biochemical. The procedure:
The activities of human DNA polymerases α, β, and γ were measured in radiolabeled nucleotide incorporation assays. TP was prepared as a 10-point titration with 3-fold serial dilution in water. Reaction buffers for the DNA polymerase α and β assays both contained 20 mM Tris pH 7.5, 10 mM MgCl2, 50 μM EDTA, 200 μg/mL bovine serum albumin (BSA), 2 mM dithiothreitol (DTT), 1.6 μM each of dNTP (dATP, dCTP, dGTP, and dTTP), 20 μCi/mL [α33P]dATP, 0.1 mg/mL gapped activated fish sperm DNA template, test compound, and 0.005 U/μL DNA polymerase α or 0.0025 U/μL DNA polymerase β. The reaction buffer for DNA polymerase γ contained 20 mM Tris pH 8, 10 mM MgCl2, 50 mM KCl, 100 μg/mL BSA, 2 mM β-mercaptoethanol, 10 μM of each dNTP (dATP, dCTP, dGTP, and dTTP), 20 μCi/mL [α33P]dATP, 0.04 mg/mL gapped activated fish sperm DNA template, test compound, and 0.0003 μg/μL DNA polymerase γ. The 50-μL reactions were incubated at room temperature for 30 min (for β and γ) or 90 min (for α) before terminating with the addition of 50 μL 500 mM EDTA. The reaction mixtures were transferred to a Millipore DE81 filter plate (EMD Millipore; Hayward, CA), washed with 0.5 M sodium phosphate pH 7.0, and dried. After addition of 40 μL scintillant to each well, the incorporation of labeled dATP was determined with a microplate counter (TopCount NXT HTS; PerkinElmer, Shelton, CA, USA).

Experiment [2] deals with HIV-1. Briefly: Single-cycle antiviral assay in PBMCs. It is filed as cell-based. As for the experimental part: To evaluate the ability of inhibitors to prevent HIV-1 infection in primary cells, human PBMCs obtained from Biological Specialty Corporation (Colmar, PA, USA) were used to assess antiviral activity. The proviral variants used for these studies were generated by site-directed mutagenesis in a proviral vector derived from NL43 [52] that encodes GFP (pNLG1-P2A-GFP). Virus was produced by transfection in 293T cells.
PBMCs were activated with phytohemagglutinin (PHA) at 5 μg/mL in Roswell Park Memorial Institute (RPMI) 1640 medium containing 10% heat-inactivated fetal bovine serum (FBS) for 2–3 days. Compound plates were prepared by dispensing compounds dissolved in DMSO into 384-well poly-d-lysine-coated plates (0.2 μL per well) using an Echo acoustic dispenser (Labcyte; San Jose, CA, USA). Each compound was tested in a 10-point serial 3-fold dilution (typical final concentrations: 5,000 to 0.1 nM). Controls included no inhibitor (DMSO only) and a combination of 3 antiviral agents, efavirenz, indinavir, and the integrase strand transfer inhibitor, L-002254051, at final concentrations of 4 μM each. PHA-activated human PBMCs were washed and resuspended in RPMI 1640 containing 10% NHS and 30 units per mL of interleukin-2 (IL-2) at 6 × 10^5 cells per mL. PBMCs were added to the compound plates and cultured for 24 h at 37 °C, 5% CO2, and 90% humidity. The appropriate HIV-1 variant was added to the PBMCs and cultured at 37 °C, 5% CO2, and 90% humidity for an additional 24 h.
HIV-1–infected cells were quantified by counting the number of GFP cells in each well using an Acumen eX3 scanner (SPT Labtech; Melbourn, UK).

As to `C#C[C@]1(COP(=O)(O)OP(=O)(O)OP(=O)(O)O)O[C@@H](n2ccc3c(N)nc(Cl)nc32)C[C@@H]1O` [MK-8527-TP], the Inhibitory activity result in experiment [1] is reported as “no inhibitory activity”.
Turning to `C#C[C@]1(CO)O[C@@H](n2ccc3c(N)nc(Cl)nc32)C[C@@H]1O` [Compound 12, (2R,3S,5R)-5-(4-amino-2-chloro-7H-pyrrolo[2,3-d]pyrimidin-7-yl)-2-ethynyl-2-(hydroxymethyl)tetrahydrofuran-3-ol], the “PBMC IC50” value in experiment [2] (HIV-1, single-cycle assay, human PBMCs, 10% NHS) is “subnanomolar potency”. For the same molecule, the IC50 (in general, the midpoint of a concentration-inhibition curve) in experiment [2] (Human immunodeficiency virus 1, PBMC, read-out: PBMC IC50, HIV-1, single-cycle assay, human PBMCs, 10% NHS) is 0.2 nM; in experiment [2] (read-out: PBMC IC50, HIV-1, single-cycle assay, human PBMCs, 10% NHS, listed as MK-8527), 0.21 ± 0.09 nM.
